Structures can show the parent of a compound that is named as a salt.
Tests used:
in vitro = details: human, CC50 (μM) AlamarBlue assay
LCMV MG = LCMV MG (Lymphocytic choriomeningitis virus, UniProt P09992+P14240); format: cell-based
[1] = tested on: LCMV/vRNP cells (HEK293T)
rLCMV/GFP = assay: microbe, parasite or virus in culture; format: cell-based

LCMV MG, sequence (P09992 whole entry, looked up): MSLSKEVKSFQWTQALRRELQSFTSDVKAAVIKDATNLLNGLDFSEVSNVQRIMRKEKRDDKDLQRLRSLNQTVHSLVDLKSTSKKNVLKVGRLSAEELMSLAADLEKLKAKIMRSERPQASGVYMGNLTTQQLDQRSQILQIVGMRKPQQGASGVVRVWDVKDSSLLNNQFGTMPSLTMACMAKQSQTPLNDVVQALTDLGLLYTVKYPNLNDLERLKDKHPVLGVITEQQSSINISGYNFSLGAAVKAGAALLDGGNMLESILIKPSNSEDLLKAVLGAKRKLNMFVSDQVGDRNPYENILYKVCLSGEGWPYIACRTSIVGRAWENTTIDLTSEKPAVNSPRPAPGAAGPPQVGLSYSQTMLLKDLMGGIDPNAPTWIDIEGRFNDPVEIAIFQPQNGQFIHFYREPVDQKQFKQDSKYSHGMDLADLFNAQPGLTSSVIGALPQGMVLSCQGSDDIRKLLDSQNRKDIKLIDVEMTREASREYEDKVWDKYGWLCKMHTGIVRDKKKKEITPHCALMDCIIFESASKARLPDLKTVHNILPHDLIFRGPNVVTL
LCMV MG, sequence (P14240 whole entry, looked up): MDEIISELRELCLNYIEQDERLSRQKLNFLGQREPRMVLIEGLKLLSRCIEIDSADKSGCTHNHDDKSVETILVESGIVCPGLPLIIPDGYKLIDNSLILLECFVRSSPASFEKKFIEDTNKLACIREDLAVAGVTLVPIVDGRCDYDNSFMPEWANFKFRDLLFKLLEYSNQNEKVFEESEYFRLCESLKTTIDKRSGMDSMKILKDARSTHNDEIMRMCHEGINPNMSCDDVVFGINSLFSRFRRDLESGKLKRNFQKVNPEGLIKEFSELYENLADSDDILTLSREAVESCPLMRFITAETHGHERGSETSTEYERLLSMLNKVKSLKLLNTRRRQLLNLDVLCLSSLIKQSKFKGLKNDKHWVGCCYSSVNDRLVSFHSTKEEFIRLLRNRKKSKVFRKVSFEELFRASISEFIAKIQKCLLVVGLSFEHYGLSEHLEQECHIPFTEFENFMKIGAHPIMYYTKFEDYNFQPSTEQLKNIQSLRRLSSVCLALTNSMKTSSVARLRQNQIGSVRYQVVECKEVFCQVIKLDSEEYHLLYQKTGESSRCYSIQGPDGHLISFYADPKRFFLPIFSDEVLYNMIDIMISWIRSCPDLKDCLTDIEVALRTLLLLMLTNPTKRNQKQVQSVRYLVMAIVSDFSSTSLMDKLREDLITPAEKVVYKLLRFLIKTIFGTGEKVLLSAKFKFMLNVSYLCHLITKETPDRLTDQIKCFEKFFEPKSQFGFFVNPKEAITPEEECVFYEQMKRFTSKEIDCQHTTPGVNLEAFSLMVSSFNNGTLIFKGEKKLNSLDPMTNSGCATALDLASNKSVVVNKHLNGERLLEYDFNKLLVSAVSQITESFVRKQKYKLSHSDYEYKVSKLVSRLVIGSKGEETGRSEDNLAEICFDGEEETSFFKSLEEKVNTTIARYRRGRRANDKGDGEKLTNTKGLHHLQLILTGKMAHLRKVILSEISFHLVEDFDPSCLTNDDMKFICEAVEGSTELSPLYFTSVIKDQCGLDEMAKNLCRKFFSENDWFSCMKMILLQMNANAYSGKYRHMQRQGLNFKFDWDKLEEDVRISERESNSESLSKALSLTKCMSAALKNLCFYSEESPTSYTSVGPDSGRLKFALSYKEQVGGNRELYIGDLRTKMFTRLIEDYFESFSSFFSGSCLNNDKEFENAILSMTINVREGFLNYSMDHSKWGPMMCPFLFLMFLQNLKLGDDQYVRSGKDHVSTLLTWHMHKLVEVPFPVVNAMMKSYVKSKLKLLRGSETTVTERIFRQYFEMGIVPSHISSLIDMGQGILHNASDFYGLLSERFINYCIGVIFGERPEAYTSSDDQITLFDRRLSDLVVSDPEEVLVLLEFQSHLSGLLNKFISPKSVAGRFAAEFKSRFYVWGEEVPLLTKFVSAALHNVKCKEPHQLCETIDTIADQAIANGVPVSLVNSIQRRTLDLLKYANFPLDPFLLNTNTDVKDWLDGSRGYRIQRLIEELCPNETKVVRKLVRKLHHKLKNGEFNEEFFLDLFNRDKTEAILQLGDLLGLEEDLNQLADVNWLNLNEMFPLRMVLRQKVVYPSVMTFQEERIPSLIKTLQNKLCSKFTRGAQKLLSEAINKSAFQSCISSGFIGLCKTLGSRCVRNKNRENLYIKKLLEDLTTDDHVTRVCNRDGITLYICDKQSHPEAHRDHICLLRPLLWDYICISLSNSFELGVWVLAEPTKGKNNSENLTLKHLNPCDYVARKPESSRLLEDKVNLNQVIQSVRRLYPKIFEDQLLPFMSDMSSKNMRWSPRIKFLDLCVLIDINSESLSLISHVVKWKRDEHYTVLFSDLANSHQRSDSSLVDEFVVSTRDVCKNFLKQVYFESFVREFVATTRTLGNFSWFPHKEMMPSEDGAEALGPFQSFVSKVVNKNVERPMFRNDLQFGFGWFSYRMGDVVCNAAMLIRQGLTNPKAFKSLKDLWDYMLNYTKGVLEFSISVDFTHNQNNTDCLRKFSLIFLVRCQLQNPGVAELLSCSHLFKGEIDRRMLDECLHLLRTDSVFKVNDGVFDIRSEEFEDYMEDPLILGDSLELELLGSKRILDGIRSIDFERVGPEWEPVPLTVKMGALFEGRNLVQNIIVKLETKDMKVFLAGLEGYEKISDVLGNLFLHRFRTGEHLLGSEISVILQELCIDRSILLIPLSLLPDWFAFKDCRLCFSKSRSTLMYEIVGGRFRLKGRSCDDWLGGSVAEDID

Compound | CC50 (in vitro) [µM] | effect on LCMV MG activity (GFP expression) (LCMV MG) | also measured
S=C(NCc1ccc2c(c1)OCO2)N1CCN(c2ncnc3c2oc2ccccc23)CC1 [Amuvatinib] | 28 |  | 
CCCCCC[C@H]1C(=O)O[C@H](C)[C@H](NC(=O)c2cccc(NC=O)c2O)C(=O)O[C@@H](C)[C@@H]1OC(=O)CC(C)C [Antimycin A] |  | dose-dependent inhibitory effect | 
CO/C=C(/C(=O)OC)c1ccccc1Oc1cc(Oc2ccccc2C#N)ncn1 [Azoxystrobin] |  |  | CC50 [1]: 62.7 µM
COc1ccc(C(O)C(C)Oc2ccc(C3OC(c4ccc(OC(C)C(O)c5ccc(OC)c(OC)c5)c(OC)c4)C(C)C3C)cc2OC)cc1OC (stereo not shown) [Manassantin A] | 24.3 | dose-dependent inhibitory effect | 
CC[C@@]1([C@H]2O[C@H]([C@H]3O[C@@](O)(CO)[C@H](C)C[C@@H]3C)C[C@H]2C)CC[C@H]([C@@]2(C)CC[C@]3(C[C@H](O)[C@@H](C)[C@@H]([C@H](C)[C@H](OC)[C@@H](C)C(=O)O)O3)O2)O1 [Monensin sodium salt] |  |  | CC50 [1]: 5.95 µM
CC[C@@H](C(=O)O)[C@@H]1O[C@@H]([C@@H](C)[C@H](O)[C@H](C)C(=O)[C@H](CC)[C@H]2O[C@]3(C=C[C@@H](O)[C@]4(CC[C@@](C)([C@H]5CC[C@](O)(CC)[C@H](C)O5)O4)O3)[C@H](C)C[C@@H]2C)[C@@H](C)C[C@@H]1C [Narasin] | 4.44 | dose-dependent inhibitory effect | 
O=c1[nH]c2ccccc2n1C1CCN(CCCC(c2ccc(F)cc2)c2ccc(F)cc2)CC1 [Pimozide] |  | dose-dependent inhibitory effect | 
C=C(C)[C@H]1Cc2c(ccc3c2O[C@@H]2COc4cc(OC)c(OC)cc4[C@@H]2C3=O)O1 [Rotenone] |  |  | EC50 (rLCMV/GFP; Mammarenavirus choriomeningitidis, A549, 48 h): 0.66 µM
O=C1c2ccccc2-n2c1nc1ccccc1c2=O [Tryptanthrin] | 12.2 |  | 
CC(C)[C@@H]1NC(=O)[C@H](C)OC(=O)[C@@H](C(C)C)NC(=O)[C@@H](C(C)C)OC(=O)[C@H](C(C)C)NC(=O)[C@H](C)OC(=O)[C@@H](C(C)C)NC(=O)[C@@H](C(C)C)OC(=O)[C@H](C(C)C)NC(=O)[C@H](C)OC(=O)[C@@H](C(C)C)NC(=O)[C@@H](C(C)C)OC1=O [Valinomycin] | 1.93 |  | 
PF429242 |  |  | effect on multiplication of live LCMV (rLCMV/GFP) (rLCMV/GFP): inhibited

Reference: publication PMC6954049 (Antiviral Research, 2019)
